Tested on: 292921-168-R-J2-PDC complex spheroid growth
Assay: Anticancer human tumor 292921-168-R-J2-PDC patient-derived pancreatic carcinoma cell line growth inhibition [AhR]
Conditions: for IC50: curve of first compound; for viability, T/C: stronger effect = lower value
In short: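 Spheroids combined tumor cells with HUVEC endothelial cells and human MSCs as stroma. AhR antagonists were paired with standard or investigational drugs, each dosed in half-log steps down from near clinical Cmax, or from 10 microM where Cmax was unknown.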

[1] = second compound 0.1 µM, first compound 0.0316 µM
[2] = second compound 0.1 µM, first compound 0.1 µM
[3] = second compound 0.316 µM, first compound 0.0316 µM
[4] = second compound 0.316 µM, first compound 0.1 µM
[5] = second compound 1 µM, first compound 0.0316 µM
[6] = second compound 1 µM, first compound 0.1 µM
[7] = second compound 3.16 µM, first compound 0.0316 µM
[8] = second compound 3.16 µM, first compound 0.1 µM
[9] = second compound 10 µM, first compound 0.0316 µM
[10] = second compound 10 µM, first compound 0.1 µM
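Further: spheroids exposed to compounds for seven days after three days of growth.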

Cn1ncnc1C1c2n[nH]c(=O)c3cc(F)cc(c23)NC1c1ccc(F)cc1 (stereo not given) + Cc1cncc(-c2nc(NCCc3c[nH]c4ccccc34)c3ncn(C(C)C)c3n2)c1
IC50 (second compound 0.1 µM): > 100 nM | IC50 (second compound 0.316 µM): > 100 nM | IC50 (second compound 1 µM): > 100 nM | IC50 (second compound 3.16 µM): > 100 nM | IC50 (second compound 10 µM): 35.1 nM | viability, T/C (second compound 0.1 µM, first compound 0.000316 µM): 94.3% | viability, T/C (second compound 0.1 µM, first compound 0.001 µM): 96.7% | viability, T/C (second compound 0.1 µM, first compound 0.00316 µM): 86.5% | viability, T/C (second compound 0.1 µM, first compound 0.01 µM): 95.5% | viability, T/C [1]: 83.9% | viability, T/C [2]: 82.6% | viability, T/C (second compound 0.316 µM, first compound 0.000316 µM): 91.4% | viability, T/C (second compound 0.316 µM, first compound 0.001 µM): 102% | viability, T/C (second compound 0.316 µM, first compound 0.00316 µM): 83.6% | viability, T/C (second compound 0.316 µM, first compound 0.01 µM): 89.2% | viability, T/C [3]: 83.7% | viability, T/C [4]: 76.7% | viability, T/C (second compound 1 µM, first compound 0.000316 µM): 80.8% | viability, T/C (second compound 1 µM, first compound 0.001 µM): 87.3% | viability, T/C (second compound 1 µM, first compound 0.00316 µM): 85.6% | viability, T/C (second compound 1 µM, first compound 0.01 µM): 73.8% | viability, T/C [5]: 74.5% | viability, T/C [6]: 81.9% | viability, T/C (second compound 3.16 µM, first compound 0.000316 µM): 68.7% | viability, T/C (second compound 3.16 µM, first compound 0.001 µM): 71.4% | viability, T/C (second compound 3.16 µM, first compound 0.00316 µM): 72.3% | viability, T/C (second compound 3.16 µM, first compound 0.01 µM): 56.2% | viability, T/C [7]: 60.1% | viability, T/C [8]: 66.2% | viability, T/C (second compound 10 µM, first compound 0.000316 µM): 50.8% | viability, T/C (second compound 10 µM, first compound 0.001 µM): 54.4% | viability, T/C (second compound 10 µM, first compound 0.00316 µM): 55.5% | viability, T/C (second compound 10 µM, first compound 0.01 µM): 52.5% | viability, T/C [9]: 47.7% | viability, T/C [10]: 48%

NS(=O)(=O)OCC1CC(n2ccc3c(NC4CCc5ccccc54)ncnc32)CC1O (stereo not given) + Cc1cncc(-c2nc(NCCc3c[nH]c4ccccc34)c3ncn(C(C)C)c3n2)c1
IC50 (second compound 0.1 µM): 227 nM | IC50 (second compound 0.316 µM): 224 nM | IC50 (second compound 1 µM): 231 nM | IC50 (second compound 3.16 µM): 229 nM | IC50 (second compound 10 µM): 221 nM | viability, T/C [1]: 136% | viability, T/C [2]: 111% | viability, T/C (second compound 0.1 µM, first compound 0.316 µM): 25.1% | viability, T/C (second compound 0.1 µM, first compound 1 µM): 6.77% | viability, T/C (second compound 0.1 µM, first compound 3.16 µM): 5.38% | viability, T/C (second compound 0.1 µM, first compound 10 µM): 5.4% | viability, T/C [3]: 133% | viability, T/C [4]: 108% | viability, T/C (second compound 0.316 µM, first compound 0.316 µM): 25.1% | viability, T/C (second compound 0.316 µM, first compound 1 µM): 7.33% | viability, T/C (second compound 0.316 µM, first compound 3.16 µM): 5.81% | viability, T/C (second compound 0.316 µM, first compound 10 µM): 5.63% | viability, T/C [5]: 117% | viability, T/C [6]: 104% | viability, T/C (second compound 1 µM, first compound 0.316 µM): 30% | viability, T/C (second compound 1 µM, first compound 1 µM): 6.44% | viability, T/C (second compound 1 µM, first compound 3.16 µM): 6.99% | viability, T/C (second compound 1 µM, first compound 10 µM): 7.06% | viability, T/C [7]: 111% | viability, T/C [8]: 93.7% | viability, T/C (second compound 3.16 µM, first compound 0.316 µM): 33.1% | viability, T/C (second compound 3.16 µM, first compound 1 µM): 8.82% | viability, T/C (second compound 3.16 µM, first compound 3.16 µM): 7.53% | viability, T/C (second compound 3.16 µM, first compound 10 µM): 6.05% | viability, T/C [9]: 69.9% | viability, T/C [10]: 76.7% | viability, T/C (second compound 10 µM, first compound 0.316 µM): 39.5% | viability, T/C (second compound 10 µM, first compound 1 µM): 13% | viability, T/C (second compound 10 µM, first compound 3.16 µM): 9.88% | viability, T/C (second compound 10 µM, first compound 10 µM): 7.28%

— PubChem BioAssay AID1918994 (Molecular Pharmacology Branch, DTP, NCI, 2023)
